According to EP4491625A1, “BENZO BICYCLIC COMPOUND, AND PREPARATION METHOD AND APPLICATION THEREOF” (Guangzhou Unirise Pharmaceutical Co., Ltd., priority 2022, dated 2023):
Read-outs that look alike come from different tables or passages of the source.

Key:
[1] = Pharmacokinetic study in rats (intravenous or gavage, plasma LC-MS/MS); assay type: in vivo; details: SD rats; for F: po 5 mg/kg versus iv 1 mg/kg; for AUC(0-t) / Cmax / Tmax / half-life: rat, plasma
Method: SD rats: male, 6-8 weeks old, weighing 200-300 g, purchased from SPF ( Beijing ) Biotechnology Co.,Ltd..
At each PK sampling point, 200 µL of whole blood was collected into EDTA-K2 anticoagulant blood tubes and centrifuged at 4°C for 30 min to obtain plasma. Whole blood samples were placed on wet ice before centrifugation. All collected plasma samples were stored on dry ice or frozen until analyzed.
Approximately1 mg of the compound of the present application was weighed and dissolved in DMSO, vortexed and sonicated to obtain a 1 mg/mL standard stock solution. The standard stock solution was diluted with 50% aqueous acetonitrile to obtain standard working solutions with concentrations of 5, 10, 20, 50, 100, 500, 1000, 5000 and 10000 ng/mL. QC working solutions with concentrations of 10, 20, 500 and 8000 ng/mL were prepared using the same dilution method. These QC samples were prepared on the day of analysis in the same way as the standard curve samples.5 µL of standard working solution with concentrations of (5, 10, 20, 50, 100, 500, 1000, 5000 and 10000 ng/mL) was added to 50 µL of blank SD rat plasma to obtain a total volume of 55 µL with concentrations of 0.5-1000 ng/mL (0.5, 1, 2, 5, 10, 50, 100, 500, and 1000 ng/mL) of standard curve samples. QC samples with concentrations of (1 ng/ml (low-1) and 2 ng/ml (low-2), 50 ng/ml (medium), 800 ng/ml (high)) were configured separately.
55 µL of standard samples, 55 µL of QC samples or 55 µL of unknown samples (50 µL of plasma samples added to 5 µL of 50% aqueous acetonitrile) were added to 200 µL of acetonitrile containing an internal standard (dexamethasone) to precipitate proteins. […] The supernatant was taken and diluted 3-fold with water, and 5 µL of the supernatant dilution was injected into the LC-MS/MS system for quantitative analysis under the following assay conditions:
Column: HALO 90A Phenly-Hexyl, 2µm 2.1×30mm.
Pharmacokinetic parameters were calculated by the […] of Phoenix TM Winnonlin® 8.3 software.

[2] = molecular target: T1, GLP-1 receptor (Homo sapiens, UniProt P43220); assay: cAMP detection assay of agonistic effect in HEK293 cells with high expression of hGLP-1R; assay type: cell-based
T1 construct: host or cells: HEK293
T1 sequence (P43220 24-463): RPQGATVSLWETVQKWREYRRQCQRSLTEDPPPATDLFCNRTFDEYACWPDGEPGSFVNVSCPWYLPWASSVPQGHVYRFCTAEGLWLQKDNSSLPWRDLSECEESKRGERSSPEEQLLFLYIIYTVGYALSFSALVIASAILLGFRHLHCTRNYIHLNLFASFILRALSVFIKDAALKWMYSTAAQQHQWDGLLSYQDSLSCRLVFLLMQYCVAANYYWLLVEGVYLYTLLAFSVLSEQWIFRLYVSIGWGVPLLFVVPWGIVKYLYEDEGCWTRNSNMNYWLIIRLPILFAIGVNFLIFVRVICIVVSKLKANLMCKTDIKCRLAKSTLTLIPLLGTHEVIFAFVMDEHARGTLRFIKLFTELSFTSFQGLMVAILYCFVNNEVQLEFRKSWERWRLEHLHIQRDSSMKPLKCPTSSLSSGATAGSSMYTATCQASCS
Method: The cells were constructed by Wuxi New Drug Development Co., Ltd. Shanghai.
The compound was prepared with DMSO to a working concentration of 100µM or 10µM. 10 points of 4-fold dilution (maximum concentration of 1000nM or 100nM after dilution) was done with Bravo V11.
The compound to be tested was diluted 4 times with Bravo to obtain 10 concentrations and the initial concentration was 100µM by Bravo V11. The initial concentration was 100µM.

[3] = Human liver microsome stability test; assay type: in vitro ADME; details: pH 7.4; human liver microsomes 0.5 mg/mL, 1 µM compound, NADPH, 37 °C
Method: Preparation of compound working solutions: A high-concentration stock solution of the subject and control drug verapamil powder was prepared in DMSO and diluted to a working solution of 100 µM with DMSO before use, with a final concentration of 1 µM of the subject and verapamil.
Preparation of phosphate buffer salt (100 mM, pH 7.4): 7.098 g of disodium hydrogen phosphate was weighed and dissolved ultrasonically in 500 mL of purified water as solution A. 3.400 g of potassium dihydrogen phosphate was weighed and dissolved ultrasonically in 250 mL of purified water as solution B. Solution B was added to the inside of solution A to give a pH of 7.4.
Preparation of 10 mM NADPH: An appropriate amount of NADPH is now weighed before the experiment and a working solution of 10 mM concentration is prepared from phosphate solution.
Preparation of the incubation system: The incubation system was prepared according to the following table, and the incubation system was preheated in a water bath at 37 °C for 10 minutes before use.
Transfer 25 µL of NADPH or phosphate buffer salt to the above incubation system and add 2.5 µL of 100 µM subject or verapamil. For NADPH-added samples, double-parallel preparations were performed; for NADPH-negative samples, single-parallel preparations were performed.
30 µL of the suspension was taken at 0.5, 5, 15, 30, and 60 min, respectively. The reaction was terminated by adding 150 µL of acetonitrile containing the internal standard and vortexed for 10 min.
This was followed by centrifugation at 3220 g for 40 min for protein precipitation. 100 µL of supernatant was transferred to the injection plate and mixed with 100 µL of pure water for UPLC-MS/MS analysis.
All data calculations were performed by Microsoft Excel software. Peak areas were detected by extracted ion mapping. The in vitro half-life (t1/2) of the parent drug was assayed by fitting the natural logarithm of the percentage elimination of the parent drug linearly with time.
The in vitro half-life (t1/2) was calculated by slope: t1/2 = 0.693 / k
The in vitro clearance (in µL/min/mg) was calculated using the following formula: CLint =0.693/ t1/2 * (Incubation system volume (μL) / protein content (mg)) [formula]
Table 3 the experimental results of human liver microsome of the compounds provided in some examples of the present invention

| SMILES | F [1] | AUC(0-t) ([1]; iv, 1 mg/kg) | Cmax ([1]; iv, 1 mg/kg) | Tmax ([1]; iv, 1 mg/kg) | half-life ([1]; iv, 1 mg/kg) | AUC(0-t) ([1]; po, 5 mg/kg) | Cmax ([1]; po, 5 mg/kg) | Tmax ([1]; po, 5 mg/kg) | half-life ([1]; po, 5 mg/kg) | EC50 [2] | half-life at 1 µM [3] | AUC(0-t) ([1]; male, iv, 1 mg/kg) | Cmax ([1]; male, iv, 1 mg/kg) | Tmax ([1]; male, iv, 1 mg/kg) | half-life ([1]; male, iv, 1 mg/kg) | AUC(0-t) ([1]; male, po, 5 mg/kg) | Cmax ([1]; male, po, 5 mg/kg) | Tmax ([1]; male, po, 5 mg/kg) | half-life ([1]; male, po, 5 mg/kg) | EC50 ([2]; agonistic effect, cAMP, HEK293 cells with high expression of hGLP-1R, read-out: EC50) |
| --- | --- | --- | --- | --- | --- | --- | --- | --- | --- | --- | --- | --- | --- | --- | --- | --- | --- | --- | --- | --- |
| O=C(O)c1ccc2nc(C[C@H]3CC[C@H](c4cccc(OCc5ccc(Cl)c6cc(F)oc56)n4)CC3)n(C[C@@H]3CCO3)c2c1 [Compound 27B, 2-(((1r,4S)-4-(6-((4-chloro-2-fluorobenzofuran-7-yl)methoxy)pyridin-2-yl)cyclohexyl)methyl)-1-(((S)-oxetan-2-yl)methyl)-1H-benzo[d]imidazole-6-carboxylic acid] | 44.4% | 1680 ng·h/mL | 2830 ng/mL | 0.083 h | 0.707 h | 3670 ng·h/mL | 1160 ng/mL | 0.833 h | 4.18 h | 0.17 nM | 1.7 h |  |  |  |  |  |  |  |  |  |
| O=C(O)c1ccc2nc(CC3CC=C(c4cccc(OCc5ccc(Cl)c6cc(F)oc56)n4)CC3)n(C[C@@H]3CCO3)c2c1 (stereo partly drawn) [Compound 2, 2-((4-(6-((4-chloro-2-fluorobenzofuran-7-yl)methoxy)pyridin-2-yl)cyclohex-3-en-1-yl)methyl)-1-(((S)-oxetan-2-yl)methyl)-1H-benzo[d]imidazole-6-carboxylic acid] | 31.8% |  |  |  |  |  |  |  |  |  | 2.27 h | 1240 ng·h/mL | 2300 ng/mL | 0.083 h | 1.15 h | 1960 ng·h/mL | 754 ng/mL | 1 h | 2.56 h | 0.23 nM |
